Test results: ChEMBL document CHEMBL1201862, “PubChem BioAssay data set” (2004)
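Briefly, cells in 96-well plates were exposed to five compound concentrations for 48 h, and endpoints were estimated by linear interpolation. At the GI50, growth is halved.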 Activity calls are given as the source filed them. Rule as the data show it: active = GI50 up to about 1.1 µM and inactive = higher.

Tests used:
Assay in all cases: inhibition of tumour cell growth, NCI panel, 48 h
SK-MEL-5 = test system: SK-MEL-5
M14 = test system: M14
SN12C = test system: SN12C
HCT-116 = test system: HCT-116
OVCAR-3 = test system: OVCAR-3
K562 = test system: K562
HCC 2998 = test system: HCC 2998
CCRF-CEM = test system: CCRF-CEM
A549 = test system: A549
UACC-62 = test system: UACC-62
SK-OV-3 = test system: SK-OV-3
HOP-92 = test system: HOP-92
RXF 393 = test system: RXF 393
786-0 = test system: 786-0
IGROV-1 = test system: IGROV-1
COLO 205 = test system: COLO 205
NCI-H226 = test system: NCI-H226
MDA-MB-231 = test system: MDA-MB-231
MDA-MB-435 = test system: MDA-MB-435
MDA-N = test system: MDA-N

Cc1ccccc1-n1c(=O)sc2c(=O)n(-c3ccccc3)c(=S)[nH]c21
GI50 (SK-MEL-5): > 100 µM (inactive)
GI50 (M14): > 100 µM (inactive)
GI50 (SN12C): > 100 µM (inactive)
GI50 (HCT-116): > 100 µM (inactive)
GI50 (OVCAR-3): > 100 µM (inactive)
GI50 (K562): > 100 µM (inactive)
GI50 (HCC 2998): > 100 µM (inactive)
GI50 (CCRF-CEM): 47.3 µM (inactive)
GI50 (A549): > 100 µM (inactive)
GI50 (UACC-62): > 100 µM (inactive)
GI50 (SK-OV-3): > 100 µM (inactive)
GI50 (HOP-92): > 100 µM (inactive)
GI50 (RXF 393): > 100 µM (inactive)
GI50 (786-0): > 100 µM (inactive)
GI50 (IGROV-1): > 100 µM (inactive)
GI50 (COLO 205): > 100 µM (inactive)
GI50 (NCI-H226): > 100 µM (inactive)

COc1ccc(S(=O)(=O)c2nnc(S(=O)(=O)Cc3ccccc3)s2)cc1
GI50 (SK-MEL-5): 19.5 µM (inactive)
GI50 (M14): 17.5 µM (inactive)
GI50 (SN12C): 23.7 µM (inactive)
GI50 (HCT-116): 20.4 µM (inactive)
GI50 (OVCAR-3): 32.2 µM (inactive)
GI50 (K562): 5.92 µM (inactive)
GI50 (A549): 20.8 µM (inactive)
GI50 (SK-OV-3): 22.5 µM (inactive)
GI50 (MDA-MB-231): 17.5 µM (inactive)
GI50 (RXF 393): 16.2 µM (inactive)
GI50 (786-0): 18.8 µM (inactive)
GI50 (MDA-MB-435): 22.5 µM (inactive)
GI50 (COLO 205): 13 µM (inactive)

Oc1ccc(Cl)cc1C1=NC(/N=C\c2ccccc2)=NC(c2ccccc2)C1 (stereo unspecified)
GI50 (SK-MEL-5): 14.1 µM (inactive)
GI50 (M14): > 100 µM (inactive)
GI50 (SN12C): 14.7 µM (inactive)
GI50 (HCT-116): 5.94 µM (inactive)
GI50 (OVCAR-3): 11.4 µM (inactive)
GI50 (K562): > 100 µM (inactive)
GI50 (CCRF-CEM): > 100 µM (inactive)
GI50 (A549): 21.7 µM (inactive)
GI50 (UACC-62): > 100 µM (inactive)
GI50 (SK-OV-3): 16.3 µM (inactive)
GI50 (MDA-MB-231): 35.6 µM (inactive)
GI50 (HOP-92): > 100 µM (inactive)
GI50 (RXF 393): 66.1 µM (inactive)
GI50 (786-0): 19.1 µM (inactive)
GI50 (IGROV-1): 7.01 µM (inactive)
GI50 (MDA-MB-435): > 100 µM (inactive)
GI50 (COLO 205): > 100 µM (inactive)
GI50 (NCI-H226): 37.8 µM (inactive)

Cc1ccc(-c2ccc(Nc3c4ccccc4nc4ccccc34)cc2)cn1
GI50 (SK-MEL-5): 4.41 µM (inactive)
GI50 (M14): 2.95 µM (inactive)
GI50 (MDA-N): 6.07 µM (inactive)
GI50 (SN12C): 3.89 µM (inactive)
GI50 (HCT-116): 2.91 µM (inactive)
GI50 (OVCAR-3): 2.63 µM (inactive)
GI50 (K562): 3.66 µM (inactive)
GI50 (HCC 2998): 29 µM (inactive)
GI50 (A549): 2.3 µM (inactive)
GI50 (UACC-62): 3.08 µM (inactive)
GI50 (HOP-92): 0.322 µM (active)
GI50 (786-0): 1.66 µM (inactive)
GI50 (IGROV-1): 5.43 µM (inactive)
GI50 (MDA-MB-435): 4.43 µM (inactive)
GI50 (COLO 205): 3.37 µM (inactive)

c1ccc2c(c1)c1c(n2CCOCCN2CCOCC2)CCCC1
GI50 (SK-MEL-5): 18.2 µM (inactive)
GI50 (M14): 12.4 µM (inactive)
GI50 (MDA-N): 37.8 µM (inactive)
GI50 (SN12C): > 10 µM (inactive)
GI50 (HCT-116): 29.8 µM (inactive)
GI50 (OVCAR-3): 26.9 µM (inactive)
GI50 (K562): 33.6 µM (inactive)
GI50 (HCC 2998): > 10 µM (inactive)
GI50 (CCRF-CEM): 21.8 µM (inactive)
GI50 (A549): 45.2 µM (inactive)
GI50 (SK-OV-3): 55.2 µM (inactive)
GI50 (MDA-MB-231): 17.3 µM (inactive)
GI50 (HOP-92): 29.2 µM (inactive)
GI50 (786-0): > 10 µM (inactive)
GI50 (IGROV-1): 36 µM (inactive)
GI50 (COLO 205): > 10 µM (inactive)

COC(=O)c1ccccc1CC(Cc1ccccc1)C(=O)OC (stereo unspecified)
GI50 (SK-MEL-5): 22.8 µM (inactive)
GI50 (M14): 68.7 µM (inactive)
GI50 (SN12C): > 100 µM (inactive)
GI50 (HCT-116): 47.9 µM (inactive)
GI50 (OVCAR-3): 58.1 µM (inactive)
GI50 (K562): 37.7 µM (inactive)
GI50 (HCC 2998): 40.3 µM (inactive)
GI50 (CCRF-CEM): 87.9 µM (inactive)
GI50 (A549): 61.9 µM (inactive)
GI50 (SK-OV-3): 36.3 µM (inactive)
GI50 (MDA-MB-231): > 100 µM (inactive)
GI50 (RXF 393): 33.7 µM (inactive)
GI50 (786-0): 71.3 µM (inactive)
GI50 (IGROV-1): > 100 µM (inactive)
GI50 (MDA-MB-435): 75.3 µM (inactive)
GI50 (COLO 205): 64.6 µM (inactive)
GI50 (NCI-H226): 43.1 µM (inactive)

COc1cc(/C=C2\[C@H]3c4c(c(OC)c(C)c(OC)c4OC)C[C@@H](C(=O)N2Cc2ccccc2)N3C(=O)OC(C)C)c(OC)c(C)c1OC
GI50 (SK-MEL-5): 48.4 µM (inactive)
GI50 (M14): > 100 µM (inactive)
GI50 (SN12C): 88.7 µM (inactive)
GI50 (HCT-116): 58.7 µM (inactive)
GI50 (OVCAR-3): 67.3 µM (inactive)
GI50 (K562): 40 µM (inactive)
GI50 (HCC 2998): 29.6 µM (inactive)
GI50 (CCRF-CEM): 54 µM (inactive)
GI50 (A549): > 100 µM (inactive)
GI50 (UACC-62): 92.9 µM (inactive)
GI50 (SK-OV-3): 2.52 µM (inactive)
GI50 (HOP-92): 8.34 µM (inactive)
GI50 (RXF 393): > 100 µM (inactive)
GI50 (786-0): > 100 µM (inactive)
GI50 (IGROV-1): > 100 µM (inactive)
GI50 (COLO 205): 53.7 µM (inactive)
GI50 (NCI-H226): 6.08 µM (inactive)

C#CC1(O)CCCCCCCCC2(CCCCCCCC1)OCCO2
GI50 (SK-MEL-5): 19.2 µM (inactive)
GI50 (M14): 19.6 µM (inactive)
GI50 (MDA-N): 20.9 µM (inactive)
GI50 (SN12C): 17.4 µM (inactive)
GI50 (HCT-116): 16.5 µM (inactive)
GI50 (OVCAR-3): 15.4 µM (inactive)
GI50 (K562): 17.5 µM (inactive)
GI50 (HCC 2998): 15.5 µM (inactive)
GI50 (A549): 13.9 µM (inactive)
GI50 (UACC-62): 14.8 µM (inactive)
GI50 (SK-OV-3): 18.7 µM (inactive)
GI50 (HOP-92): 17.4 µM (inactive)
GI50 (RXF 393): 10.9 µM (inactive)
GI50 (786-0): 17.6 µM (inactive)
GI50 (IGROV-1): 16.7 µM (inactive)
GI50 (MDA-MB-435): 19.4 µM (inactive)
GI50 (COLO 205): 17.4 µM (inactive)
GI50 (NCI-H226): 17 µM (inactive)
